Experiments:
SHR = test: Systolic blood pressure (tail-cuff) in SHR, drug given continuously for 3 weeks by osmotic pump; type: in vivo, rat; conditions: continuous 3 weeks
Description: The importance of regulating MLCK expression by Ras signaling in vivo was further investigated by treating SHR with U0126 continuously for 3 weeks. U0126 is a specific inhibitor MEK (Favata et al., 1998J. Biol. Chem. 273: 18623-18632), an upstream regulator of ERK in the Ras signaling pathway (Chien & Hoshijima, 2002, Id.). […] In these experiments, Systolic blood pressure (SBP) was measured using tail-cuff sphygmomanometry (IITC Incorporated/Life Sciences Institute, Woodland Hills Calif.). Drugs were delivered via an osmotic pump (DURECT Corporation, Cupertino, Calif.) implanted subcutaneously in the shoulder. The pumps (having a 2 mL capacity at a delivery rate of 2.45 μL/hour) were filled with 13.5 mM U0126 (BIOMOL Research Laboratories, Plymouth Meeting, Pa.) dissolved in 50% DMSO or vehicle alone. Three weeks later, rats were sacrificed and aortas were removed. Some vessels were processed for histology, while other tissue was immediately placed in ice-cold acetone containing 10% trichloroacetic acid (TCA) and 10 mM dithiothreitol (DTT). Endothelial cells were removed by gently rubbing the inside of the vessels with a cell lifter and connective tissue was removed by dissection. The cleaned vessels were then frozen on dry ice and stored at −80° C. for biochemical analysis.
Another experiment was conducted to determine if inhibiting Ras signaling could decrease blood pressure in SHR.

WKY rats = conditions: age-matched WKY rats, U0126 3 weeks; returned to baseline within 2 weeks of treatment
Excerpt: The importance of regulating MLCK expression by Ras signaling in vivo was further investigated by treating SHR with U0126 continuously for 3 weeks. U0126 is a specific inhibitor MEK (Favata et al., 1998J. Biol. Chem. 273: 18623-18632), an upstream regulator of ERK in the Ras signaling pathway (Chien & Hoshijima, 2002, Id.). Rats that were 8 weeks old at the start of treatment were studied because blood pressure increases and blood vessels become thicker between 8 and 12 weeks of age (Yamori, 1984, Id). In these experiments, Systolic blood pressure (SBP) was measured using tail-cuff sphygmomanometry (IITC Incorporated/Life Sciences Institute, Woodland Hills Calif.). Drugs were delivered via an osmotic pump (DURECT Corporation, Cupertino, Calif.) implanted subcutaneously in the shoulder. The pumps (having a 2 mL capacity at a delivery rate of 2.45 μL/hour) were filled with 13.5 mM U0126 (BIOMOL Research Laboratories, Plymouth Meeting, Pa.) dissolved in 50% DMSO or vehicle alone. Three weeks later, rats were sacrificed and aortas were removed. Some vessels were processed for histology, while other tissue was immediately placed in ice-cold acetone containing 10% trichloroacetic acid (TCA) and 10 mM dithiothreitol (DTT). Endothelial cells were removed by gently rubbing the inside of the vessels with a cell lifter and connective tissue was removed by dissection. […]

[1] = tested on: medial smooth muscle layer of aortas and mesenteric arteries
Excerpt: (§1) The importance of regulating MLCK expression by Ras signaling in vivo was further investigated by treating SHR with U0126 continuously for 3 weeks. U0126 is a specific inhibitor MEK (Favata et al., 1998J. Biol. Chem. 273: 18623-18632), an upstream regulator of ERK in the Ras signaling pathway (Chien & Hoshijima, 2002, Id.). Rats that were 8 weeks old at the start of treatment were studied because blood pressure increases and blood vessels become thicker between 8 and 12 weeks of age (Yamori, 1984, Id). In these experiments, Systolic blood pressure (SBP) was measured using tail-cuff sphygmomanometry (IITC Incorporated/Life Sciences Institute, Woodland Hills Calif.). Drugs were delivered via an osmotic pump (DURECT Corporation, Cupertino, Calif.) implanted subcutaneously in the shoulder. The pumps (having a 2 mL capacity at a delivery rate of 2.45 μL/hour) were filled with 13.5 mM U0126 (BIOMOL Research Laboratories, Plymouth Meeting, Pa.) dissolved in 50% DMSO or vehicle alone. Three weeks later, rats were sacrificed and aortas were removed. Some vessels were processed for histology, while other tissue was immediately placed in ice-cold acetone containing 10% trichloroacetic acid (TCA) and 10 mM dithiothreitol (DTT). Endothelial cells were removed by gently rubbing the inside of the vessels with a cell lifter and connective tissue was removed by dissection. The cleaned vessels were then frozen on dry ice and stored at −80° C. for biochemical analysis.
Blood vessels were also assessed histologically. […] Cross-sections (5 microns thick) were cut, deparaffinized and stained with Gomort's Trichrome. Nuclei were visualized with Weigert's iron hematoxylin. The thickness of the medial layer was quantified using NIH ImageJ 1.32 software (National Institutes of Health, Bethesda, […].).

[2] = tested on: ERK-P, MLCK expression and MLC-P
Description: Cells or pieces of blood vessels were extracted in buffer containing 9 M urea, 10 mM DTT and 20 mM Tris, pH 8.0. Protein concentrations were measured using the Bradford Protein Assay (BioRad, Richmond, Calif.) and equivalent amounts of protein were subjected to SDS-PAGE or urea-glycerol PAGE, Proteins separated by SDS-PAGE were transferred to nitrocellulose and probed with an antibody to MLCK (de Lanerolle et al., 1981, Proc. Natl. Acad. Sci. 78: 4738-4742), the broad specificity C4 antibody to actin (Lessard, 1988, Cell. Motil. Cytoskeleton. 10: 349-362), antibodies to Rho A or phosphorylated MPasel (Santa Cruz Biotechnology, Santa Cruz, Calif.) or an antibody to phosphorylated ERK½ (Cell Signaling Technology, Beverly, Mass.). Urea-glycerol PAGE was used to separate the unphosphorylated and phosphorylated forms of MLC20, which was then transferred to nitrocellulose and probed with an antibody to MLC20, wherein the stoichiometry of phosphorylation (mol PO4/mol MLC20) was calculated as previously described (Obara et al., 1989, Pflugers. Arch. 414: 134-138). Ail immunoreactive bands were visualized using enhanced chemiluminescence (Amersham Pharmacia Biotech, Piscataway, N.J.) and quantified densitometrically.
as §1
ERK-P, MLCK expression and MLC-P were assayed in U0126 SHR as described above.

MLCK expression in VSMC = test: Blocking Ras signaling in vitro in VSMC: MLCK expression and MLC-P by Western blot; type: cell-based, rat
Description: In view of the results obtained in Example 3 above, the effect of modulating SRF expression or activity on MLCK expression was assayed. To inhibit SRF activity, an adenovirus (AdSRF-S) lacking exons 4 and 5 was used to express a truncated, dominant negative form of SRF in cells (Davis et al., 2002, Id). Control cells were infected with a virus expressing GFP (AdGFP) at the same multiplicity of infection. In these experiments, VSMC were explanted from aortas of 4 to 7 weeks old SHR or WKY rats as previously described (Ross, 1971, J. Cell. Biol. 50: 172-186) and cultured in Dulbeccos's modified Eagles's medium (DMEM) with 10% fetal bovine serum (FBS). VSMC from WKY rats grown in 6-well plates (90-100% confluent) were infected for 2 hours with either an adenovirus that express a short form of SRF (AdSRF-S) (Davis et al., 2002, Id) or a control virus that expresses GFP (AdGFP). The viruses were washed out and the cells were grown as described above for 48 hours. VSMC were harvested and cell lysates were subjected to western blot analyses.
Dominant negative Ras decreased MLCK mRNA expression in VSMC from SHR (FIG. 4C, inset). To investigate downstream events of Ras signaling, VSMC from SHR were treated with antisense oligonucleotides to ERK, a known member of the Ras signaling pathway. […]

[3] = U0126-treated SHR compared to control

With `N#CC(=C(/N)Sc1ccccc1N)/C(C#N)=C(\N)Sc1ccccc1N` [U0126] the “systolic blood pressure at the end of the 3-week treatment period” value (SHR; SHR 8 weeks old at start, 13.5 mM U0126 in osmotic pump, vehicle 208.9±4.7) was 150.4±4.1 mmHg, the “systolic blood pressure at the end of the 3-week treatment period” value (SHR; SHR 16 weeks old at start, osmotic pump, vehicle 221.6) was 181.4±0.89 mmHg and the “SBP in normotensive WKY rats” value (WKY rats) was “transient decrease”. For the same compound, the “medial smooth muscle layer in aortas and mesenteric arteries” value ([1]; SHR receiving U0126 compared to controls) was “thinner”, the “total medial area of aortas” value ([1]; SHR, 3 weeks U0126, NIH ImageJ, vehicle 117.8±3.69) was 66.4±2.79 relative units and the “total medial area of mesenteric arteries” value ([1]; SHR, 3 weeks U0126, mean from two animals, vehicle 26.88) was 16.0. For the same compound, the “RhoA expression in aortas” value ([2]; SHR after U0126 treatment) was “No significant differences”, the “phosphorylated myosin phosphorylase-1 (MPasel-P) in aortas” value ([2]; SHR after U0126 treatment) was “No significant differences” and the “ERK phosphorylation (ERK-P) in blood vessels” value [2, 3] was “decreased”. The “MLC phosphorylation (MLC-P) in blood vessels” value [2, 3] was “decreased”, the “MLCK expression in blood vessels” value [2, 3] was “decreased” and the “MLCK expression in VSMC” value (MLCK expression in VSMC) was “decreased”.

Source: US20090054328A1, “Reagents and Methods for Modulating Gene Expression Related to Hypertension” (The Board of Trustees of the University of Illinois, priority 2005, published 2009)
